{
  "source": "patent US9789096B2",
  "about": "“Methods and compositions for selective and targeted cancer therapy” (Board of Regents of the University of Texas System, priority 2013, dated 2017)",
  "test_system": "H2122",
  "test": "Cell viability dose-response, H2122",
  "type": "cell-based, human",
  "conditions": "text b138; read-out: IC50 towards H2122 cells",
  "summary_of_the_method": "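Cells plated at 15% confluence in RPMI-1640 with 5% FBS and 2 mM L-glutamine, treated with compound in a 12-point, 3-fold dilution series from 50 micromolar, in duplicate. ATP measured by Cell Titer Glo after 4 days; IC50 taken from the dose-response curve.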",
  "data": [
    {"smiles": "C#CCOc1ccc(C(=O)c2ccc(NC(=O)C(=O)NCCc3ccc(OC)cc3)cc2)cc1", "note": "[SW208108]", "values": [
      {"measurement": "IC50", "result": 30, "unit": "nM"}
    ]}
  ]
}
